This is an account of results in ChEMBL document CHEMBL1201862, “PubChem BioAssay data set” (2004).

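Dose response: 5 concentrations. Exposure: 48 h. Format: 96-well plates. Endpoint: linear interpolation; highest concentration if not reached. Here, GI50 denotes the concentration required for 50% inhibition of growth.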 Calls of active or inactive are those of the source. Rule as the data show it: active = GI50 up to about 1.1 µM and inactive = higher. Some results are limits rather than exact numbers.

What all share (assay): DTP human tumour cell line panel, 48 h
Test [1] has as its system SW-620.
Test [2] relates to NCI-H23.
Test [3] concerns IGROV-1.
Test [4] deals with UO-31.
The test system of test [5] is OVCAR-8.
In test [6] the test system is SNB-75.
In test [7] the test system is MOLT-4.
Test [8] has as its system CAKI-1.
The subject of test [9] is SF-268.
Test [10] deals with ACHN.
Test [11] deals with SK-MEL-28.
Test [12] deals with HCT-15.
Test [13] has as its system SK-MEL-5.
The subject of test [14] is HCT-116.
Test [15] has as its system LOX IMVI.
Test [16] relates to KM12.
Test [17] has as its system SNB-19.
The test system of test [18] is RXF 393.

Regarding `COc1cc(-c2n[nH]cc2CCCC(=O)Nc2ccccc2[N+](=O)[O-])ccc1O`, the GI50 in test [1] was 59.3 µM (inactive); in test [2] it was > 100 µM (inactive); in test [3], > 100 µM (inactive); in test [4] it was 79.8 µM (inactive); in test [5] it was > 100 µM (inactive); in [6] it was 20.8 µM (inactive). For the same compound, the GI50 in [7] was 42.2 µM (inactive); in [8], > 100 µM (inactive); in test [9], > 100 µM (inactive); in test [10], > 100 µM (inactive); in [11], > 100 µM (inactive); in [12], 64.6 µM. The GI50 is 61.4 µM (inactive) in test [13], 45.3 µM (inactive) in [14] and > 100 µM (inactive) in test [15].

As to `N#CCCN(c1ccc(/C=C2\N=C(c3ccc(Cl)cc3)OC2=O)cc1)S(=O)(=O)c1ccccc1`, the GI50 in test [16], in [1], in test [2], in test [3], in test [4] and in test [5] was > 100 µM (inactive) each time. Further, the GI50 in [6] is 76 µM (inactive); in test [7] it was > 100 µM (inactive); in [8] it was > 100 µM (inactive); in [9], > 100 µM (inactive); in test [10] it was > 100 µM (inactive); in test [17], > 100 µM (inactive). For the same compound, the GI50 in test [11] is > 100 µM (inactive); in test [12] it was above 100 µM; in test [13] it was > 100 µM (inactive); in [14] it was > 100 µM (inactive); in test [15], > 100 µM (inactive).

Regarding `c1ccc2c(c1)Cc1c(Cc3csc4ccccc34)ccc3cccc-2c13`, the GI50 in [16], in test [1], in test [18], in test [2], in [3] and in [4] was > 100 µM (inactive) in each case. For the same compound, the GI50 in test [5] was > 100 µM (inactive); in test [6] it was 19.7 µM (inactive); in test [7], > 100 µM (inactive); in [9], > 100 µM (inactive); in test [10], > 100 µM (inactive); in test [17] it was > 100 µM (inactive). The GI50 in [11] was > 100 µM (inactive); in test [12], above 100 µM; in [13], > 100 µM (inactive); in test [14] it was > 100 µM (inactive).

In the case of `CN(C)CCn1c2c3ccccc3ccc2c2oc(=O)c3ccccc3c21`, the GI50 in test [16] was 6.71 µM (inactive); in test [1], 4 µM (inactive); in test [2], 6.3 µM (inactive); in test [3], 12.1 µM (inactive); in test [4] it was 1.61 µM (inactive); in test [5], 5.53 µM (inactive). The GI50 in [6] is 2.3 µM (inactive); in [7], 2.62 µM (inactive); in test [8] it was 6.37 µM (inactive); in test [9], 2.71 µM (inactive); in test [10], 5.24 µM (inactive); in test [17], 10.3 µM (inactive). Moreover, the GI50 in [11] was 5.68 µM (inactive); in [12] it was 8.34 µM; in [14] it was 4.2 µM (inactive); in test [15] it was 4.23 µM (inactive).

In the case of `Cc1ccccc1C1CC(c2ccccc2)=NO1` (centres undefined), the GI50 in test [16], in test [1], in test [2], in test [3], in test [4] and in [5] was > 100 µM (inactive) in each case. Also, the GI50 in test [6], in [7], in [8], in [9], in test [10] and in [17] was > 100 µM (inactive) each time. For the same compound, the GI50 in [11] is > 100 µM (inactive); in test [12] it was above 100 µM; in test [13] it was > 100 µM (inactive); in test [14], > 100 µM (inactive).

Take `CCc1cccc(C)c1NC(=O)CCc1n[nH]c(=S)o1`: the GI50 in test [16] is > 100 µM (inactive); in test [1] it was 13.3 µM (inactive); in test [2], > 100 µM (inactive); in [3] it was > 100 µM (inactive); in test [4], > 100 µM (inactive); in test [5], > 100 µM (inactive). Besides, the GI50 in test [6], in test [7], in [8], in test [9], in [10] and in test [17] was > 100 µM (inactive) in each case. The GI50 in test [11] is > 100 µM (inactive); in test [12], 55.1 µM; in test [13] it was > 100 µM (inactive); in test [14] it was 16.1 µM (inactive).

`CN(CCCN1C(=O)c2cccc3cc([N+](=O)[O-])cc(c23)C1=O)CCN(C)CCCN1C(=O)c2cccc3cc([N+](=O)[O-])cc(c23)C1=O`: the GI50 is 24.7 µM (inactive) in [16]; 2.48 µM (inactive) in test [1]; 33 µM (inactive) in test [18]; > 39.3 µM (inactive) in [2]; 16 µM (inactive) in test [3]; 2.74 µM (inactive) in test [5]. The GI50 is 20.4 µM (inactive) in [6]; 1.51 µM (inactive) in [7]; 31.9 µM (inactive) in [8]; 29 µM (inactive) in test [9]; 17.9 µM (inactive) in test [10]; > 39.3 µM (inactive) in test [17]. Moreover, the GI50 is 25.5 µM (inactive) in test [11], 32.6 µM in test [12], 17.4 µM (inactive) in [13] and 11.7 µM (inactive) in [14].

Turning to `O=C(Cc1nc2ccccc2s1)C(=O)Nc1ccc(Cl)cc1`, the GI50 in [16], in test [1], in test [2], in test [3], in test [4] and in [5] was > 100 µM (inactive) throughout. Besides, the GI50 in test [6], in [7], in test [8], in [9], in [10] and in test [17] was > 100 µM (inactive) throughout. Also, the GI50 in [11] is > 100 µM (inactive); in test [12], above 100 µM; in [13], > 100 µM (inactive); in test [14] it was > 100 µM (inactive); in test [15] it was > 100 µM (inactive).

As to `CC1C=C(OC(=O)c2ccccc2)C(=O)C(n2cc(F)c(=O)[nH]c2=O)O1` (centres undefined), the GI50 in test [16] is 46 µM (inactive); in test [1], > 100 µM (inactive); in [2], 53.6 µM (inactive); in test [3] it was > 100 µM (inactive); in test [4], 87.7 µM (inactive); in [5] it was 84.3 µM (inactive). Also, the GI50 was > 100 µM (inactive) in test [6]; 51.5 µM (inactive) in test [7]; 62.1 µM (inactive) in test [8]; > 100 µM (inactive) in test [9]; 59.7 µM (inactive) in test [10]; > 100 µM (inactive) in [17]. Further, the GI50 in [11] was 53.1 µM (inactive); in test [12], 50.6 µM; in [13], 91 µM (inactive); in [14], 38.5 µM (inactive).

As for `CCOC(=O)C12CCCC1(O)N(NC(=O)OC(C)(C)C)C(C)=C2C(=O)OC` (centres undefined), the GI50 in [16], in test [1], in test [2], in [3], in test [4] and in test [5] was > 100 µM (inactive) in each case. The GI50 is > 100 µM (inactive) in [7]; > 100 µM (inactive) in test [8]; > 100 µM (inactive) in test [9]; > 100 µM (inactive) in test [10]; > 100 µM (inactive) in test [17]; > 10 µM (inactive) in test [11]. In addition, the GI50 in test [12] is above 100 µM; in [14], > 100 µM (inactive); in test [15], > 100 µM (inactive).

As to `CCCC[C@@H]1CCN2C[C@@H](O)[C@@H](O)[C@H]2[C@@H]1O`, the GI50 in [16], in test [1], in [2], in test [3], in test [4] and in test [5] was > 100 µM (inactive) in each case. The GI50 in test [6], in [7], in [8], in test [9], in [10] and in test [17] was > 100 µM (inactive) throughout. Further, the GI50 in test [11] was > 100 µM (inactive); in [12], above 100 µM; in test [13], > 100 µM (inactive); in test [14] it was > 100 µM (inactive); in test [15], > 100 µM (inactive).

With `COc1ccc(NC(=O)CC2S/C(=N\c3ccccc3C)NC2=O)c([N+](=O)[O-])c1` (centres undefined), the GI50 in test [16], in test [1], in [2], in test [3], in test [4] and in test [5] was > 100 µM (inactive) throughout. Moreover, the GI50 in test [6], in [7], in test [9], in test [10], in [17] and in [11] was > 100 µM (inactive) in each case. Moreover, the figures for the GI50 in test [12], in test [14] and in test [15] were above 100 µM, > 100 µM (inactive) and > 100 µM (inactive), respectively.

As for `COc1ccc(/C=C/c2cc(OC)c(OC(C)=O)c(OC)c2)cc1`, the GI50 in [2] is 20.7 µM (inactive); in test [3] it was 36.8 µM (inactive); in [4], 20.3 µM (inactive); in test [5], 22 µM (inactive); in test [6] it was 18.5 µM (inactive); in test [7], 20.3 µM (inactive). Further, the GI50 in test [9] is 29.1 µM (inactive); in test [10], 33 µM (inactive); in [17], 25.1 µM (inactive); in [11] it was 9.68 µM (inactive); in test [12], 26.2 µM; in test [14], 30.8 µM (inactive).
